Results: patent US20140135310A1, “SULPHONAMIDE DERIVATIVES OF ALICYCLIC AMINES FOR THE TREATMENT OF CENTRAL NERVOUS SYSTEM DISEASES” (Adamed Sp. z o.o., priority 2011, published 2014)

Tests used:
[1] = biological target: T1, receptors D4.4 (Homo sapiens, UniProt P21917); test: Radioligand binding assay, dopaminergic D4 (D4.4) receptors; conditions: test compound 1×10^−6 M
T1 sequence (P21917 1-419): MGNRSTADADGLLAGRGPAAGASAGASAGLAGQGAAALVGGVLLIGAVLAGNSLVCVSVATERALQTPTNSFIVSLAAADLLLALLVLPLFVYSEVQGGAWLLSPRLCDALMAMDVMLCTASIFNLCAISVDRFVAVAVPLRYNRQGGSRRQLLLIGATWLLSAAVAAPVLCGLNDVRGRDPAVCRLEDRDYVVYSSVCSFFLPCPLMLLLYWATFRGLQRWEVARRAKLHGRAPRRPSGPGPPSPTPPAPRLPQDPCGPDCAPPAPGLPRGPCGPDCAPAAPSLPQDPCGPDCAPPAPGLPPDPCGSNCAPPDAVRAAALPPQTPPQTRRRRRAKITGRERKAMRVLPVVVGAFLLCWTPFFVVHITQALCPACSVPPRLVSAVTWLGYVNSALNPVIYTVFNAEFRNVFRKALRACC
In short: (§1)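 Scintillation read-out. Specific = total − nonspecific (excess cold ligand). Data as % of control specific binding / % inhibition; IC50 by Hill fit; Ki = IC50/(1+L/KD), KD from Scatchard plot.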

[2] = biological target: T2, M3 muscarinic receptors (Homo sapiens, UniProt P20309); test: Radioligand binding assay, muscarinic M3 receptors; conditions: test compound 1×10^−6 M
T2 construct: expressed in transfected cells; host or cells: CHO cells
T2 sequence (P20309 whole entry): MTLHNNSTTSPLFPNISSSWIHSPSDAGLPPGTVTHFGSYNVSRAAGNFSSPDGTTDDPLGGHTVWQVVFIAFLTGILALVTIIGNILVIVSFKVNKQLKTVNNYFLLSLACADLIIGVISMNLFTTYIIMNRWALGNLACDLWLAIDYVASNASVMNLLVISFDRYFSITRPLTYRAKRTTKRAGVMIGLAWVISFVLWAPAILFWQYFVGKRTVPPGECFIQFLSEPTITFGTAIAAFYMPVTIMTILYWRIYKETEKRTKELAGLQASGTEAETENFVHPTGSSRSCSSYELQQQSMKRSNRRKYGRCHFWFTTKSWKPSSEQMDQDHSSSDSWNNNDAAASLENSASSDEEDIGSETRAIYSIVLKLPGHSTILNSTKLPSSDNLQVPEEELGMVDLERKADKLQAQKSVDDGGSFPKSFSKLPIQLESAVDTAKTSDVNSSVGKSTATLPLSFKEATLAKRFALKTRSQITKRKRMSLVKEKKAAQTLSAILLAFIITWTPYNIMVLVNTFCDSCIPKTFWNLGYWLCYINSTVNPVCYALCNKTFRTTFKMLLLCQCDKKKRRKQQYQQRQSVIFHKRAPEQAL
In short: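 Radioligand competition binding, detected by scintillation counting; non-specific binding defined with excess unlabelled ligand. Results given as % inhibition of control specific binding; IC50 from Hill-equation fit of competition curves, Ki via Cheng-Prusoff with radioligand KD from Scatchard plot.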

[3] = biological target: T3, 5-HT6 receptor (Homo sapiens, UniProt P50406); test: Radioligand binding assay, serotoninergic 5-HT6 receptors; conditions: for Ki: read-out: Inhibition constants Ki, 5-HT6;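 on 5-HT6 [%]: test compound at 1 µM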
T3 construct: purchased PerkinElmer
T3 sequence (P50406 whole entry): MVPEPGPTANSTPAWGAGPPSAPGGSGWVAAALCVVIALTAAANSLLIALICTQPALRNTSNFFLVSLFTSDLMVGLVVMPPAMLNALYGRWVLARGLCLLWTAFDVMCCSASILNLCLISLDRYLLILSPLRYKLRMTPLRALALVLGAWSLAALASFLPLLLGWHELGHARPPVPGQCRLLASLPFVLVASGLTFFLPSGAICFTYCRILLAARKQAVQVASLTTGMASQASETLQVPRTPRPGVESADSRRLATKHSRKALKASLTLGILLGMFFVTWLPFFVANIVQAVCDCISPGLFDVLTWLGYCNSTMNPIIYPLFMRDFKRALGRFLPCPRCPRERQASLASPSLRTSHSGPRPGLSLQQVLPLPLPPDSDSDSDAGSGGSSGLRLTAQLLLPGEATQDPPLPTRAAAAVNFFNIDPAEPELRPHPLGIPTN
In short: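 Values are Ki from Cheng–Prusoff, taking IC50 from Hill nonlinear regression of competition curves and KD from a Scatchard plot. Specific binding was total minus binding with excess unlabelled ligand. Radioligand displacement was detected by scintillation counting, and data were also reported as percent of control specific binding.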

[4] = biological target: T4, H1 histaminergic receptors (Homo sapiens, UniProt P35367); test: Radioligand binding assay, histaminergic H1 receptors; conditions: human recombinant (HEK-293 cells), [3H]pyrilamine 1 nM
T4 construct: expressed in transfected cells; host or cells: HEK-293 cells
T4 sequence (P35367 whole entry): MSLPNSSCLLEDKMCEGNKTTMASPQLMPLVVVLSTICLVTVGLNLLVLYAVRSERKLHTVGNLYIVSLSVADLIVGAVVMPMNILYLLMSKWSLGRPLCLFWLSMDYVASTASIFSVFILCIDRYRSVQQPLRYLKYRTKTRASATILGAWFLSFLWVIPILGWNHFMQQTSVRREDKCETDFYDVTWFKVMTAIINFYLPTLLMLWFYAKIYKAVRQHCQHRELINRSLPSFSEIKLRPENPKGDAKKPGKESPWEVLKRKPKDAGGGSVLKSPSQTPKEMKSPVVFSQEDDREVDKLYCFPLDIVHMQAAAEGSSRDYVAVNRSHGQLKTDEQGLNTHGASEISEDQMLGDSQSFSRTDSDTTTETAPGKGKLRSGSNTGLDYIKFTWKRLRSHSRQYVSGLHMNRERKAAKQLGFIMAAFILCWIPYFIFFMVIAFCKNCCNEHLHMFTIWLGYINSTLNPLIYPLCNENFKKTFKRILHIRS
In short: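 Competition binding at human H1 receptors; specific binding taken as total minus non-specific binding in excess unlabelled ligand, scintillation read-out. IC50 from Hill-equation fit of competition curves; Ki by Cheng-Prusoff using radioligand concentration and Kd (from Scatchard plot).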

[5] = biological target: dopaminergic receptors D3 (Homo sapiens, UniProt P35462); test: Radioligand binding assay, dopaminergic D3 receptors; conditions: test compound 1×10^−6 M
dopaminergic receptors D3, sequence (P35462 whole entry): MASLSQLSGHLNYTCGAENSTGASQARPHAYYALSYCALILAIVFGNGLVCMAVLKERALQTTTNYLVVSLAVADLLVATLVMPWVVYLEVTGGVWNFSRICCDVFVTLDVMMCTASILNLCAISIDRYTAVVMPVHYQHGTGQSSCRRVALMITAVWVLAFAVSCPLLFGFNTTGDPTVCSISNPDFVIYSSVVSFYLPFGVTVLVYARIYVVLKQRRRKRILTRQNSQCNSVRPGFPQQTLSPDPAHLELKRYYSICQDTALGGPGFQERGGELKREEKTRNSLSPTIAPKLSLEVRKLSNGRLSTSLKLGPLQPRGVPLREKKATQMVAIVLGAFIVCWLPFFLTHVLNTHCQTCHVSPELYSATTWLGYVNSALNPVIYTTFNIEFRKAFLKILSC
In short: as §1

[6] = biological target: T5, 5-HT2A receptor (Homo sapiens, UniProt P28223); test: Radioligand binding assay, serotoninergic 5-HT2A receptors; conditions: for Ki: read-out: Inhibition constants Ki, 5-HT2A
T5 construct: purchased PerkinElmer
T5 sequence (P28223 whole entry): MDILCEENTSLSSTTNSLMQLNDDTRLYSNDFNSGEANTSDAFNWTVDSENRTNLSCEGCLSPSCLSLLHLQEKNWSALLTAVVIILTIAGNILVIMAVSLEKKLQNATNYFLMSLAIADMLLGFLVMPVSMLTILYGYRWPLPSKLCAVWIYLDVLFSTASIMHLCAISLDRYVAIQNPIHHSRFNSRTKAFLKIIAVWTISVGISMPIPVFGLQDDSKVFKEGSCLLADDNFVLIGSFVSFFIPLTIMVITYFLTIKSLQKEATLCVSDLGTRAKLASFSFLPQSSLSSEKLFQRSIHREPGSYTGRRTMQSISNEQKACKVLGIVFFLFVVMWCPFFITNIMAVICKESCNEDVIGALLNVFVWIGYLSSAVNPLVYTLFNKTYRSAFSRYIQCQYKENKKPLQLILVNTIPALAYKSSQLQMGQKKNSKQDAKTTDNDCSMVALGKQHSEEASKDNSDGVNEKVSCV
In short: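 Competition curves from scintillation-counted specific binding (total minus binding with excess unlabelled ligand) were Hill-fitted to give IC50, converted to Ki via Cheng-Prusoff using Scatchard-derived Kd.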

[7] = biological target: T6, 5-HT2C receptor (Homo sapiens, UniProt P28335); test: Radioligand binding assay, serotoninergic 5-HT2C receptors; conditions: test compound 1×10^−6 M
T6 construct: expressed in transfected cells; host or cells: HEK-293 cells
T6 sequence (P28335 33-458): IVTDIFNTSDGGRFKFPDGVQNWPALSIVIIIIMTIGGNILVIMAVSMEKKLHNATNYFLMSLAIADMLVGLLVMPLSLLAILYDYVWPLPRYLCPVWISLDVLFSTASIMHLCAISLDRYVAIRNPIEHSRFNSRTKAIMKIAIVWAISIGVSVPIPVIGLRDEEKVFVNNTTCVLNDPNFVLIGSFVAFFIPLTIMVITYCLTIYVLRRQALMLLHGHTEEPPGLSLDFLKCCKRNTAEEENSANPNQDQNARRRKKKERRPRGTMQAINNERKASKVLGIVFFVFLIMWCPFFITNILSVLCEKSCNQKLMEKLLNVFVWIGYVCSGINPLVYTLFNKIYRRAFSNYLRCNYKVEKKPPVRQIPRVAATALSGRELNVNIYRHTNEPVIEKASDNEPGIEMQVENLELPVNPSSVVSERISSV

[8] = biological target: T7, 5-HT7 receptor (Homo sapiens, UniProt P34969); test: Radioligand binding assay, serotoninergic 5-HT7 receptors; conditions: binding assay result in %, Table 5a;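 further: test compound at 1 µM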
T7 construct: purchased PerkinElmer
T7 sequence (P34969 whole entry): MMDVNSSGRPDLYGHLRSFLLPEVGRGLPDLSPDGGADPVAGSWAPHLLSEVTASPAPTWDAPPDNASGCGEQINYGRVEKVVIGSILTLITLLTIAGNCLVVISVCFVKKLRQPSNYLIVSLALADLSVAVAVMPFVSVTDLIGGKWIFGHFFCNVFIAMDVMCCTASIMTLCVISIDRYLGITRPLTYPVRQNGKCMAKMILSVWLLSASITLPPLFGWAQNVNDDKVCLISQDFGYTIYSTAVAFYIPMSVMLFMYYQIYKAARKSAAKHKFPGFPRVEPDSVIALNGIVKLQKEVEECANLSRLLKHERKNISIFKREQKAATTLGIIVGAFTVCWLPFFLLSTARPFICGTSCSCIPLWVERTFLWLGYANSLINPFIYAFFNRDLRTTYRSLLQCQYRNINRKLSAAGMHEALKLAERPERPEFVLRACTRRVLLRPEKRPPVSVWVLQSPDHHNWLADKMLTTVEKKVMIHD
In short: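 Ki values used the Cheng–Prusoff equation, with KD from Scatchard analysis, applied to IC50 from Hill fits of human 5-HT7 radioligand competition curves. Bound radioligand was counted by scintillation, and excess unlabelled ligand set the non-specific binding.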

[9] = binding assay result in %, Table 5a

Compound	inhibition at 1 µM [1]	inhibition at 1 µM [2]	5-HT6 [%] [3, 9]	Ki [3]	inhibition at 1 µM [4]	D3 [%] [5]	5-HT2A [%] [6, 9]	Ki [6]	inhibition at 1 µM [7]	5-HT7 [%] [8]	inhibition at 1 µM [3, 9]	inhibition at 1 µM [5]	inhibition at 1 µM [6, 9]	inhibition at 1 µM [8]
O=S(=O)(NCC1CN(CCCc2noc3cc(F)ccc23)C1)c1cc2ccccc2s1 [Compound 127, N-[[1-[3-(6-Fluoro-1,2-benzoxazol-3-yl)propyl]azetidin-3-yl]methyl]benzo-thiophene-2-sulphonamide]	55%	1%	96%	18 nM	54%	79%	99%	4.2 nM	84%	96%	–	–	–	–
O=S(=O)(NCC1CCN(CCOc2cccc3c2OCCO3)C1)c1ccc2c(c1)CCO2 (stereo not shown) [Compound 306, N-[[1-[2-(2,3-Dihydro-1,4-benzodioxin-5-yloxy)ethyl]pyrrolidin-3-yl]-methyl]-2,3-dihydrobenzofuran-5-sulphonamide]	33%	12%	–	–	57%	–	–	–	36%	–	45%	26%	81%	94%
O=S(=O)(NC1CCN(CCCc2noc3cc(F)ccc23)C1)c1ccc2cc(Cl)ccc2c1 (stereo not shown) [Compound 23, 6-Chloro-N-[1-[3-(6-fluoro-1,2-benzoxazol-3-yl)propyl]pyrrolidin-3-yl]naphthalene-2-sulphonamide]	55%	10%	–	–	60%	–	–	–	67%	–	97%	95%	99%	95%
Cc1cccc(S(=O)(=O)NC2CCN(CCCc3c[nH]c4ccc(F)cc34)C2)c1 (stereo not shown) [Compound 78, N-[1-[3-(5-Fluoro-1H-indol-3-yl)propyl]pyrrolidin-3-yl]-3-methyl-benzenesulphonamide]	79%	5%	–	42 nM	65%	–	–	–	78%	–	94%	98%	95%	89%
O=S(=O)(NCC1CCN(CCOc2cccc3c2OCCO3)C1)c1ccc(F)cc1 (stereo not shown) [Compound 300, N-[[1-[2-(2,3-Dihydro-1,4-benzodioxin-5-yloxy)ethyl]pyrrolidin-3-yl]-methyl]-4-fluoro-benzenesulphonamide]	52%	-2%	–	–	28%	–	–	–	34%	–	38%	30%	72%	90%
Cc1cc(S(=O)(=O)N[C@H]2CCN(CCCc3noc4cc(F)ccc34)C2)c(C)s1 [Compound 223, N-[(3S)-1-[3-(6-Fluoro-1,2-benzoxazol-3-yl)propyl]pyrrolidin-3-yl]-2,5-dimethyl-thiophene-3-sulphonamide]	92%	25%	–	–	52%	–	–	–	65%	–	94%	57%	99%	100%
O=S(=O)(N[C@H]1CCN(CCCc2noc3cc(F)ccc23)C1)c1ccc2cc(Cl)ccc2c1 [Compound 201, 6-Chloro-N-[(3S)-1-[3-(6-fluoro-1,2-benzoxazol-3-yl)propyl]pyrrolidin-3-yl]naphthalene-2-sulphonamide]	50%	9%	–	79 nM	64%	–	–	7 nM	72%	–	94%	84%	98%	95%
O=S(=O)(NC1CCN(CCCc2c[nH]c3ccc(F)cc23)C1)c1ccc(Cl)cc1 (stereo not shown) [Compound 77, 4-Chloro-N-[1-[3-(5-fluoro-1H-indol-3-yl)propyl]pyrrolidin-3-yl]-benzenesulphonamide]	78%	17%	–	39 nM	54%	–	–	–	77%	–	95%	93%	100%	89%
O=S(=O)(NC1CCN(CCCc2noc3cc(F)ccc23)C1)c1cc2ccccc2s1 (stereo not shown) [Compound 25, N-[1-[3-(6-Fluoro-1,2-benzoxazol-3-yl)propyl]pyrrolidin-3-yl]-benzothiophene-2-sulphonamide]	84%	23%	–	–	75%	–	–	–	83%	–	95%	97%	102%	98%
O=S(=O)(NC1CCN(CCCc2noc3cc(F)ccc23)C1)c1ccc2ccccc2c1 (stereo not shown) [Compound 21, N-[1-[3-(6-Fluoro-1,2-benzoxazol-3-yl)propyl]pyrrolidin-3-yl]naphthalene-2-sulphonamide]	83%	-11%	–	–	57%	–	–	–	71%	–	95%	96%	100%	100%
O=S(=O)(NCC1CCN(CCOc2cccc3c2OCCO3)C1)c1ccc(C(F)(F)F)cc1 (stereo not shown) [Compound 293, N-[[1-[2-(2,3-Dihydro-1,4-benzodioxin-5-yloxy)ethyl]pyrrolidin-3-yl]methyl]-4-(trifluoromethyl)benzenesulphonamide]	35%	10%	–	–	38%	–	–	–	50%	–	47%	60%	86%	90%
O=S(=O)(NC1CCN(CCCc2noc3cc(F)ccc23)C1)c1cccc2ccccc12 (stereo not shown) [Compound 20, N-[1-[3-(6-Fluoro-1,2-benzoxazol-3-yl)propyl]pyrrolidin-3-yl]naphthalene-1-sulphonamide]	100%	-7%	–	–	36%	–	–	–	33%	–	97%	69%	100%	98%
O=S(=O)(NCC1CCN(CCOc2cccc3c2OCCO3)C1)c1cccc(F)c1 (stereo not shown) [Compound 298, N-[[1-[2-(2,3-Dihydro-1,4-benzodioxin-5-yloxy)ethyl]pyrrolidin-3-yl]-methyl]-3-fluoro-benzenesulphonamide]	48%	22%	–	–	40%	–	–	–	37%	–	40%	35%	88%	93%
Cc1cc(S(=O)(=O)N[C@@H]2CCN(CCCc3noc4cc(F)ccc34)C2)c(C)s1 [Compound 222, N-[(3R)-1-[3-(6-Fluoro-1,2-benzoxazol-3-yl)propyl]pyrrolidin-3-yl]-2,5-dimethyl-thiophene-3-sulphonamide]	98%	18%	–	–	79%	–	–	–	65%	–	94%	74%	99%	102%
